In test [1] the test system is patient (G22) derived intracranial gliomas. As to the kind of experiment: Survival study, patient-derived G22 orthotopic tumors. The format is in vivo, mice. The settings on record: G22 orthotopic model; single dose TMZ 25 mg/kg. How it is done:
(§1) Animals were anaesthetized using a mixture of ketamine (100 mg/kg) and xylazine (10 mg/kg) via intraperitoneal injection. Anesthetized animals were then placed in a stereotaxic frame and sterilized the scalp with betadine and alcohol. To expose the coronal and sagittal sutures, a midline scalp incision was created, and a burr hole was drilled 2 mm lateral to the sagittal suture and 0.5 mm anterior to the bregma. U87 or G22 cells ([…]) in 3 μL PBS were injected into the right stratum over 3 min using a 10-μL Hamilton syringe. The animal was left 5 min for tissue equilibration before and after infusion. When infusion was finished, the burr hole was filled with bone wax and skin was stapled and cleaned.
(§2) CED in tumor bearing mice was similar to tumor inoculation by reopening the burr hole used for tumor inoculation. A micro-infusion pump (World Precision Instruments) was used to infuse 6 μL of NPs at a rate of […].
(§3) Tumors grew for 6 days before the administration of treatment. Intracranial CED of sγPNA/BNP was conducted following the same surgical procedure as described. TMZ (25 mg/kg) in PBS was administered intraperitoneally on day 7. Animals were monitored daily and weighed every week. […] Total RNA in the tumor and contralateral hemisphere was isolated using mirVana miRNA Isolation Kit and analyzed by real-time PCR detection system as previously described.

A further test has as its system intracranial U87 tumors. As to the kind of experiment: Survival study, intracranial U87 tumors. The settings on record: NPs by CED 6 days post inoculation, TMZ 25 mg/kg i.p. The format is in vivo, mice. How it is done:
as §1, §2, §3

A further test concerns U87 cells. The test can be described thus: Cell viability assay, U87. The format is cell-based, human. The settings on record: BNP 0.5 mg/mL, TMZ 20 μM. How it is done:
Cells were seeded in 96-well plates at a density of 5,000 cells/well and treated with increasing concentrations of NP formulations. Cell viability was evaluated by CellTiter-Glo Luminescent Cell Viability Assay (Promega) after 48 h, 72 h treatment. Luminescence was measured using a plate reader (SpectraMax M5) and relative cell viability was normalized to the viability of untreated cells. For TMZ involved combination studies, cells were seeded in 96-well plates at a density of 1,000 cells/well and exposed to sγPNA/NNP and sγPNA/BNP. After 72 h of treatments, NPs were removed and TMZ was added to the wells. Cell viability was measured as described above after 6 days of treatment.

For orientation: viability means a per cent measure of how many cells are alive, often set against a control.

Regarding `Cn1nnc2c(C(N)=O)ncn2c1=O` [TMZ, Temozolomide], the results for the Median survival (in test [1]; in the test with intracranial U87 tumors) were 79 days and 81 days, respectively. The “Cell viability/100” value in the test with U87 cells is on record as 0.66. For the same compound, the viability at 20 µM with U87 cells (Homo sapiens, U-87 MG, read-out: Cell viability (% of control)) was determined as 66%.
